Experiments:
[1] = target: Beta-2 adrenergic receptor (Homo sapiens, UniProt P07550); assay: DRUGMATRIX: Adrenergic beta2 radioligand binding (ligand: [3H] CGP-12177); format: cell membranes, Membrane; settings: cho; Not Active = under 50% inhibition at 10 µM
Insulin receptor = Insulin receptor (Rattus norvegicus, UniProt P15127); format: cell membranes, Wistar, Liver, Membrane; also: in other assays of this panel Not Active means under 50% inhibition at 10 µM
Melanocortin receptor 3 = Melanocortin receptor 3 (Homo sapiens, UniProt P41968); format: cell membranes, Membrane; settings: hek293; also: in other assays of this panel Not Active means under 50% inhibition at 10 µM
Chain of Melanocortin receptor 3 (P41968 whole entry): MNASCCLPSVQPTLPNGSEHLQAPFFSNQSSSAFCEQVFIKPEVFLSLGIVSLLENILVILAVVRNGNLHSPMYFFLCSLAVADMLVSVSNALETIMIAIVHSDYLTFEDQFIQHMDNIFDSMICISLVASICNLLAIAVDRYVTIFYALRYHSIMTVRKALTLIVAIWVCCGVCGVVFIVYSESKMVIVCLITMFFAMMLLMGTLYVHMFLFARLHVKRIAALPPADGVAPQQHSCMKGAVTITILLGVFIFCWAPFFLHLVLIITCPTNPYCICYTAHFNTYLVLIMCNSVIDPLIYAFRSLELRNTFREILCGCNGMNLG

[2] = target: T1, Angiotensin-converting enzyme (Oryctolagus cuniculus, UniProt P12822); assay: biochemical; format: tissue-based, Lung;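 also: enzymatic inhibition of angiotensin-converting enzyme measured with FAPGG as the substrate; in other assays of this panel Not Active means under 50% inhibition at 10 µM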
T1 sequence (P12822 whole entry): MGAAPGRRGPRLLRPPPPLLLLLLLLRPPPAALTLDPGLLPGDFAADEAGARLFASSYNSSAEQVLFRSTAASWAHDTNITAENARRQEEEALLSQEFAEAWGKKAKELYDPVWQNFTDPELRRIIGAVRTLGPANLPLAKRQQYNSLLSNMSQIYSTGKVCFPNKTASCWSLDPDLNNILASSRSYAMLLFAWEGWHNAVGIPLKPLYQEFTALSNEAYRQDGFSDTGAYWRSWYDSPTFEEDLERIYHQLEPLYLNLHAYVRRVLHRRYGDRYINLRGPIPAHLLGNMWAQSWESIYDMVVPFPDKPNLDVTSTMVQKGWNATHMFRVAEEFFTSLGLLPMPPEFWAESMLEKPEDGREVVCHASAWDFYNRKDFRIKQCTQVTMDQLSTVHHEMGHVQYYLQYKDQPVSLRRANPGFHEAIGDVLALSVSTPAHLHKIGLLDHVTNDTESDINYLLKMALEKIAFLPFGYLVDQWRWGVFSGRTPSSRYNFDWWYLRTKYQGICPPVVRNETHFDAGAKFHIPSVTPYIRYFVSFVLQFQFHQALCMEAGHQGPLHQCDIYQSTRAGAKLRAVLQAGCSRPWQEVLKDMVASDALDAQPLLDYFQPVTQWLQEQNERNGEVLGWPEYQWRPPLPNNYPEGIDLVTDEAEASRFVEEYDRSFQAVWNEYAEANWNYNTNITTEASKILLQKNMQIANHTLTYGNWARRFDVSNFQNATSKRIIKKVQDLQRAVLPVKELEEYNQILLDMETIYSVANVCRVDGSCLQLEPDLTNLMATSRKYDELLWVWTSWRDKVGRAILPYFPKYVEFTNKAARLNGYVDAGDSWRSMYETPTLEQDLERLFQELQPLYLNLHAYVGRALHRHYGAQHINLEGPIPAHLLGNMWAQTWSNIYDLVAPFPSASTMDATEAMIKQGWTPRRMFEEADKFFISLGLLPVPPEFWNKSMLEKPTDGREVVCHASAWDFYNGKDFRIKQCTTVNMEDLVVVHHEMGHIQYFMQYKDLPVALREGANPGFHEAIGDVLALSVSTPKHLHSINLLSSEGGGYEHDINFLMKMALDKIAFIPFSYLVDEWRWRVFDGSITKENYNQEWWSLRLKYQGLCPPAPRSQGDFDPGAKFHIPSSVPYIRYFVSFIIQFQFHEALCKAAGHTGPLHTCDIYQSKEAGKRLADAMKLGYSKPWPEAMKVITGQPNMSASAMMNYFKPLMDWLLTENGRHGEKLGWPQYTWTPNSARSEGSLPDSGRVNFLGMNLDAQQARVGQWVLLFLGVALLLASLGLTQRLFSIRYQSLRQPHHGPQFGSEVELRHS

Interstitial collagenase = target: T2, Interstitial collagenase (Homo sapiens, UniProt P03956); format: tissue-based, Rheumatoid synovial fibroblasts;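 also: MMP-1 enzyme inhibition assay using a peptide substrate; in other assays of this panel Not Active means under 50% inhibition at 10 µM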
T2 sequence (P03956 whole entry): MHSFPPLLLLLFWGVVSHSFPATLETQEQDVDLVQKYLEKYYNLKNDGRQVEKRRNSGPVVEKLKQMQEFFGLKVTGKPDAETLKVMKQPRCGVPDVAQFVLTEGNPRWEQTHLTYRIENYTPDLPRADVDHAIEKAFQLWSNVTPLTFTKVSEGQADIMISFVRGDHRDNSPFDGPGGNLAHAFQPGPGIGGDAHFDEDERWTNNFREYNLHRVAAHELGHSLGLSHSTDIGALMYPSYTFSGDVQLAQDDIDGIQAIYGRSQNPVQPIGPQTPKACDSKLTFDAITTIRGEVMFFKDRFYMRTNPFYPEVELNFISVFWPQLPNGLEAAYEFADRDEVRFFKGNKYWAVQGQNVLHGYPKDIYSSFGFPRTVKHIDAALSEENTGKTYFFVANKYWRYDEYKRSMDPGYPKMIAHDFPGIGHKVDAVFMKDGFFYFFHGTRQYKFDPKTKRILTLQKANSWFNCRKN

[3] = target: Mitogen-activated protein kinase 3 (Homo sapiens, UniProt P27361); assay: DRUGMATRIX: Protein Serine/Threonine Kinase, ERK1 enzyme inhibition (substrate: Myelin Basic Protein); parameters: species or system Escherichia coli; settings: Not Active = under 50% inhibition at 10 µM
Chain of Mitogen-activated protein kinase 3 (P27361 whole entry): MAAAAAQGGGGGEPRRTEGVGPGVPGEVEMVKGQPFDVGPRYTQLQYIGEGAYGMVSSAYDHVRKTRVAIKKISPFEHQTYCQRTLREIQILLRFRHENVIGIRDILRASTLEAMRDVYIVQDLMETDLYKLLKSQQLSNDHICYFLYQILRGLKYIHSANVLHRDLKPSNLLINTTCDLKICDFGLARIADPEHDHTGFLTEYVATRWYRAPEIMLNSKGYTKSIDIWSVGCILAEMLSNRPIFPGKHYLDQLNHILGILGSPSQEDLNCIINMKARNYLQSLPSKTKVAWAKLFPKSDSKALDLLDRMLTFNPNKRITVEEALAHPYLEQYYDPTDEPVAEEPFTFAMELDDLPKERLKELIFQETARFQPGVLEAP

[4] = target: Epidermal growth factor receptor (Homo sapiens, UniProt P00533); assay: DRUGMATRIX: Protein Tyrosine Kinase, EGF Receptor enzyme inhibition (substrate: Poly(Glu:Tyr)); format: cell-based, Insect cells; settings: insect cells; Not Active = under 50% inhibition at 10 µM
Glucocorticoid receptor = target: T3, Glucocorticoid receptor (Homo sapiens, UniProt P04150); settings: hela s3; also: in other assays of this panel Not Active means under 50% inhibition at 10 µM
T3 sequence (P04150 whole entry): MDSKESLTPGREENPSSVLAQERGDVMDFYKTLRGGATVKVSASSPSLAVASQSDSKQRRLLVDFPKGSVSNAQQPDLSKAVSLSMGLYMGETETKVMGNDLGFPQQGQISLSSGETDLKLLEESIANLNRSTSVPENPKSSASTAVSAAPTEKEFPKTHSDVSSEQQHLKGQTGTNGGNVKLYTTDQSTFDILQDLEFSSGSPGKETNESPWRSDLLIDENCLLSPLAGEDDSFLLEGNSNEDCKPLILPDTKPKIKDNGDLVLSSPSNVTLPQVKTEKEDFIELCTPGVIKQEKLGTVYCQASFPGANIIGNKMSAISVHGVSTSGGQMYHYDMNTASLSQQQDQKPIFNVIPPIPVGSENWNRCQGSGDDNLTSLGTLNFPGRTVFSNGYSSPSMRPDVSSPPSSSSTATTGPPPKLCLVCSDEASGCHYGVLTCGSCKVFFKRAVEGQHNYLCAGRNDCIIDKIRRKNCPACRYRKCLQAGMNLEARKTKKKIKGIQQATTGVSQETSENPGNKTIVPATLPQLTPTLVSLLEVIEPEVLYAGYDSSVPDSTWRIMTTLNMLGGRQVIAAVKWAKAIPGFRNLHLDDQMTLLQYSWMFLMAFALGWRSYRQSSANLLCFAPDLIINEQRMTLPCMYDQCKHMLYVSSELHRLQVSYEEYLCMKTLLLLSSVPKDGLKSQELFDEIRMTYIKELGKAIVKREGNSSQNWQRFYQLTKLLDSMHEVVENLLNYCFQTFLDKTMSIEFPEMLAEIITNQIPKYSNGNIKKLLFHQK

Chain of Insulin receptor (P15127 27-759 limits assumed): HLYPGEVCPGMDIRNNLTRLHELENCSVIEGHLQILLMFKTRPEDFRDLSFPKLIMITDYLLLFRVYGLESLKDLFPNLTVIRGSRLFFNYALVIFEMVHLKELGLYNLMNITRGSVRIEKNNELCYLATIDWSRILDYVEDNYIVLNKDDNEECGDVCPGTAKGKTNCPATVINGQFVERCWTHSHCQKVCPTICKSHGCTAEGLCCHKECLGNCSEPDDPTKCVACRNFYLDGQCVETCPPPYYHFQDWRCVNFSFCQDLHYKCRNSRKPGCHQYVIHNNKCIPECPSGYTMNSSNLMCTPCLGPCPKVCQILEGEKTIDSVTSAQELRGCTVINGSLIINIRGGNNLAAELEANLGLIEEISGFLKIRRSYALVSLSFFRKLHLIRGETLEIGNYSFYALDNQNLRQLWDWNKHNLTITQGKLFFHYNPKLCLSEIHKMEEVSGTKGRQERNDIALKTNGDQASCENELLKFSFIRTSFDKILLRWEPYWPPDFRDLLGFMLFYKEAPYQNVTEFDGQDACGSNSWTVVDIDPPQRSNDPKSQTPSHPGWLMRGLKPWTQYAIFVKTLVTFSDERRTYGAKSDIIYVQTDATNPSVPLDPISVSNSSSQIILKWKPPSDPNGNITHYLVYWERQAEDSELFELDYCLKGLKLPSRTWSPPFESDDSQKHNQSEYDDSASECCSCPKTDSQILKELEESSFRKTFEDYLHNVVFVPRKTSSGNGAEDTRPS
Chain of Insulin receptor (P15127 764-1383 limits assumed): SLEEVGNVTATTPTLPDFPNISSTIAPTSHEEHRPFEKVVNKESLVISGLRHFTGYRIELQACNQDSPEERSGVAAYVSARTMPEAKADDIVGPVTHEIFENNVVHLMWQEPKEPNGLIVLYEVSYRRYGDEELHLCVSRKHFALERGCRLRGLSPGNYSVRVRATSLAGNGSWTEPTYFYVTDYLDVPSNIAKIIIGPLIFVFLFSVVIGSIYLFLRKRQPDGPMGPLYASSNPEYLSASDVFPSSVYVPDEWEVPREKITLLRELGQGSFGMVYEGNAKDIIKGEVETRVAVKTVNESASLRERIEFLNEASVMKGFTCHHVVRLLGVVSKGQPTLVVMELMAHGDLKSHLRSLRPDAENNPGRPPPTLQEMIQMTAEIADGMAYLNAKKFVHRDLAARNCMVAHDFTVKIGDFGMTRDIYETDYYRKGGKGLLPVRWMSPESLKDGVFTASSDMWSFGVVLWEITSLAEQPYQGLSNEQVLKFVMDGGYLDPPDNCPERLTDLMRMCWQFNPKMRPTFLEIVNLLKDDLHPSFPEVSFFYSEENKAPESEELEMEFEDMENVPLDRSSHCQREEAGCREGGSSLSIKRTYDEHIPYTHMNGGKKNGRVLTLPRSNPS

O=c1[nH]cc(F)c(=O)[nH]1 [FLUOROURACIL]
Not Active: IC50 [1] | IC50 (Insulin receptor) | IC50 (Melanocortin receptor 3) | IC50 [2] | IC50 (Interstitial collagenase) | IC50 [3] | IC50 [4] | IC50 (Glucocorticoid receptor)

O=C1OC2(c3ccc(O)cc3Oc3cc(O)ccc32)c2ccccc21 [FLUORESCEIN]
Not Active: IC50 [1] | IC50 (Insulin receptor) | IC50 (Melanocortin receptor 3) | IC50 [2] | IC50 (Interstitial collagenase) | IC50 [3] | IC50 [4] | IC50 (Glucocorticoid receptor)

COC1=CC(=O)C[C@@H](C)[C@]12Oc1c(Cl)c(OC)cc(OC)c1C2=O [GRISEOFULVIN]
Not Active: IC50 [1] | IC50 (Insulin receptor) | IC50 (Melanocortin receptor 3) | IC50 [2] | IC50 (Interstitial collagenase) | IC50 [3] | IC50 [4] | IC50 (Glucocorticoid receptor)

CARBOPLATIN
Not Active: IC50 [1] | Ki [1] | IC50 (Insulin receptor) | Ki (Insulin receptor) | IC50 (Melanocortin receptor 3) | Ki (Melanocortin receptor 3) | IC50 [2] | Ki [2] | IC50 (Interstitial collagenase) | Ki (Interstitial collagenase) | IC50 [3] | Ki [3] | IC50 [4] | Ki [4] | IC50 (Glucocorticoid receptor) | Ki (Glucocorticoid receptor)
